Test results from article PMC9603010 (ACS Bio & Med Chem Au, 2022).

Legend:
3CL^pro Q299A = 3CL^pro Q299A (Severe acute respiratory syndrome coronavirus 2, UniProt P0DTD1, Q3562A); format: cell-based, SARS-CoV-2
3CL^pro M165A = 3CL^pro M165A (Severe acute respiratory syndrome coronavirus 2, UniProt P0DTD1, M3428A); format: cell-based, SARS-CoV-2

SMILES: C=C1C(=O)O[C@H]2[C@H]1CC/C(C)=C/CC[C@@]1(C)O[C@@H]21 [parthenolide]
- inhibition in Q299A compared to WT (3CL^pro Q299A): reduced
- inhibition in M165A compared to WT (3CL^pro M165A): reduced
